In patent US11530213B2, “Naphthyridinone derivatives and their use in the treatment of arrhythmia” (NOVARTIS AG, priority 2016, dated 2022):

What follows are compounds tested against GIRK1/4 (Homo sapiens (Human), UniProt P48544+P48549) (assay: GIRK1/4 inhibition, Quattro (IonWorks) population patch clamp, inward potassium current in GIRK 1/4 HEK293 stable cells (test assay No. 1)). Conditions: percentage of current inhibition normalized to DMSO-only control.
Format: cell-based
Procedure: The activity of a compound according to the present invention can be assessed by the following in vitro method. • 1. Buffers: • a. External buffer: 10 mM NaCl, 50 mM Na Gluconate, 80 mM K Gluconate, 1.8 mM CaCl2, 1 mM MgCl2, 10 mM HEPES, 10 mM Glucose, pH 7.4; osmolality […]. • b. Internal buffer: 30 mM KCl, 100 mM K Gluconate, 1 mM MgCl2, 10 mM HEPES, 1 mM EGTA, 10 mM NaCl, pH 7.2; osmolality […]. • 2. Compounds: • a. Prepare seven-fold compound dilution series (10 mM to 20 uM) in 100% DMSO, in 384-well polypropylene plates. • b. Propafenone (Sigma Aldrich, catalog number P4670) is used as a positive control and DMSO for neutral control • c. Resuspend 1 ul of compounds in DMSO into 65.7 ul external buffer in 384-well polypropylene plate and load into Plate 1 section of Molecular Devices Quattro • 3. Quattro setup: • a. Load 384-well Population Patch Plate (Molecular Devices #9000-0902) into Quattro • b. Fill Quattro F-soak trough with 20% DMSO and 50% EtOH • c. Fill Quattro buffer trough with external buffer • d. Attach internal buffer flask to Quattro internal buffer tubing • e. Attach PBS (Phosphate Buffered Saline, minus Ca^++ and Mg^++, pH7.4) bottle to F-head & E-head wash on Quattro • 4. Antibiotic: • a. Resuspend 5.6 mg amphotericin B (Sigma Aldrich, catalog number A2411) in 175 ul DMSO • b. Add the resulting solution to 50 ml internal buffer, mix and attach to antibiotic tubing port on Quattro • 5. Cells: • a. Use GIRK 1/4 HEK293 stable cells (obtained from ChanTest, 14656 Neo Parkway, Cleveland, Ohio 44128) grown to […] confluency in the following cell culture medium: DMEM containing 10% (v/v) Fetal Bovine Serum, Penicillin/Streptomycin (at “1×” concentration from a 100× stock), 0.5 mg/ml G418 and 0.1 mg/ml Zeocin. • b. Wash cells with PBS (minus Ca^++ and Mg^++), Detach cells using Detachin (Genlantis, 11011 Torreyana, San Diego, Calif. 92121), and resuspend in external buffer (5 ml final volume at 2.0-2.1×10^6 cells/ml) • c. Load into cell trough of Quattro • 6. Assay Protocol: • Quattro is controlled using IonWorks v2 software to perform the following steps: • a. Add 3.5 ul cells plus 3.5 ul external buffer to wells of Quattro Patch Plate • b. Circulate amphotericin B and internal buffer onto cells • c. Apply the following voltage protocol: Pulse 1: 15 mV for 300 milliseconds (ms), followed by Pulse 2: −120 mV for 400 ms, then Pulse 3: −15 mV for 400 ms, and finally Pulse 4: −120 mV to 40 mV over 500 ms (this is a voltage ramp). • d. Measure magnitude of inward potassium current at time point between 1200-1220 ms from start of Pulse 1 (i.e. during the voltage ramp phase). • e. Add 3.5 ul of diluted compounds (or DMSO) to wells and repeat steps c-d (final compound concentrations are 50 uM to 0.1 uM, for potent compounds 0.5 uM to 0.01 uM and each concentration is tested in quadruplicate—i.e. in 4 separate wells). • f. The difference between current magnitude pre vs. post-compound gives a measure of GIRK1/4 inhibition. • 7. Data analysis:
IC50 values are calculated by plotting the percentage of current inhibition (normalized to the DMSO-only control) as a function of compound concentration using standard data analysis software.

GIRK1/4, sequence (P48549 whole entry): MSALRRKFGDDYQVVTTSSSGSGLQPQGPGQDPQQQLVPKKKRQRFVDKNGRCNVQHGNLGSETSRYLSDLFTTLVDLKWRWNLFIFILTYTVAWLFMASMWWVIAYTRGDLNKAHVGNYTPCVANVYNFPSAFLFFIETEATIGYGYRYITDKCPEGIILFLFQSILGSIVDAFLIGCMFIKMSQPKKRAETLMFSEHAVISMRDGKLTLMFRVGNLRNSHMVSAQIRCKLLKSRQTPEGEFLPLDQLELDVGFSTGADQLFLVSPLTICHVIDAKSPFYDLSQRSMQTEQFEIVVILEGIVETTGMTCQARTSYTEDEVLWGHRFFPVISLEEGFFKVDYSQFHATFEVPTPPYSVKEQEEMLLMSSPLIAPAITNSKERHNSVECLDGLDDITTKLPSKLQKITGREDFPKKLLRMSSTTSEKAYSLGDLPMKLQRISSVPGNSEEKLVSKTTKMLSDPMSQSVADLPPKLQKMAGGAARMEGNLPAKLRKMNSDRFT
GIRK1/4, sequence (P48544 whole entry): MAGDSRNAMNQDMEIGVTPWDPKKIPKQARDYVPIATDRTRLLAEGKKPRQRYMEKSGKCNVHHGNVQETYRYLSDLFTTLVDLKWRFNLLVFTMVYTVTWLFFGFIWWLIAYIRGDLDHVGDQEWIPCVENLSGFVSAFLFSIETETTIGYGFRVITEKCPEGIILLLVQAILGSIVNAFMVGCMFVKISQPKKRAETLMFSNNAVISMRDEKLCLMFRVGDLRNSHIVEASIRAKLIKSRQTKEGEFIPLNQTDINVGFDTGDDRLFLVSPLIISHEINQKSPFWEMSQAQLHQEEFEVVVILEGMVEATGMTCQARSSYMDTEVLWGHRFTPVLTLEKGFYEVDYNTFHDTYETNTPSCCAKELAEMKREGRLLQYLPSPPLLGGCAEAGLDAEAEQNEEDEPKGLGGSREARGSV

Row | SMILES | IC50
1 | CCc1cnc(OCC(O)CO)c2c(=O)cc(C)n(-c3c(Cl)cccc3Cl)c12 (stereo not drawn) [Example 69, 1-(2,6-Dichlorophenyl)-5-(2,3-dihydroxpropoxy)-8-ethyl-2-methyl-1,6-naphthyridin-4(1H)-one] | 0.115 µM
2 | Cc1cc(=O)c2c(C(C)(O)C(=O)CO)ncc(Cl)c2n1-c1c(Cl)cccc1Cl (stereo not drawn) [Example 89, 8-Chloro-1-(2,6-dichlorophenyl)-5-(2,4-dihydroxy-3-oxobutan-2-yl)-2-methyl-1,6-naphthyridin-4(1H)-one] | 0.024 µM
3 | Cc1cc(=O)c2c(NCCO)cncc2n1-c1c(Cl)cc(C#N)cc1Cl [Example 27, 3,5-dichloro-4-(5-((2-hydroxyethyl)amino)-2-methyl-4-oxo-1,7-naphthyridin-1(4H)-yl)benzonitrile] | 0.15 µM
4 | Cc1cc(=O)c2c(C(O)CO)ncc(Cl)c2n1-c1c(Cl)cccc1Cl (stereo not drawn) [Example 85, 8-Chloro-1-(2,6-dichlorophenyl)-5-(1,2-dihydroxyethyl)-2-methyl-1,6-naphthyridin-4(1H)-one] | 0.019 µM
5 | O=c1cc(CO)n(-c2c(Cl)cccc2Cl)c2c(Cl)cnc(CCCO)c12 [Example 74, 8-Chloro-1-(2,6-dichlorophenyl)-2-(hydroxymethyl)-5-(3-hydroxypropyl)-1,6-naphthyridin-4(1H)-one] | 0.069 µM
6 | Cc1cc(=O)c2c(OCC(O)C(C)(C)O)ncc(Cl)c2n1-c1c(Cl)cccc1Cl (single isomer, unassigned) [Example 58, 8-chloro-1-(2,6-dichlorophenyl)-5-(2,3-dihydroxy-3-methylbutoxy)-2-methyl-1,6-naphthyridin-4(1H)-one] | 0.017 µM
7 | O=c1cc(CO)n(-c2c(Cl)cccc2Cl)c2c(Cl)cnc(OCC3(CO)COC3)c12 [Example 5, 8-chloro-1-(2,6-dichlorophenyl)-2-(hydroxymethyl)-5-((3-(hydroxymethyl)oxetan-3-yl)methoxy)-1,6-naphthyridin-4(1H)-one] | 0.235 µM
8 | O=c1cc(CO)n(-c2c(Cl)cccc2Cl)c2c(Cl)cnc(O)c12 [Example 64, 8-Chloro-1-(2,6-dichlorophenyl)-5-hydroxy-2-(hydroxymethyl)-1,6-naphthyridin-4(1H)-one] | 0.97 µM
9 | Cc1cc(=O)c2c(OCC(O)C(C)(C)O)ncc(Cl)c2n1-c1c(Cl)cccc1Cl (stereo not drawn) [Example 40, 8-chloro-1-(2,6-chlorophenyl)-5-(2,3-dihydroxy-3-methylbutoxy)-2-methyl-1,6-naphthyridin-4(1H)-one] | 0.013 µM
10 | O=c1cc(CO)n(-c2c(Cl)cccc2Cl)c2c(Cl)cnc(OC[C@H](O)CO)c12 [Example 2, (R)-8-chloro-1-(2,6-dichlorophenyl)-5-(2,3-dihydroxypropoxy)-2-(hydroxymethyl)-1,6-naphthyridin-4(1H)-one] | 0.159 µM
11 | O=c1cc(CO)n(-c2c(Cl)cccc2Cl)c2c(Cl)cnc(C(O)CO)c12 (single isomer, unassigned) [Example 83, 8-Chloro-1-(2,6-dichlorophenyl)-5-(1,2-dihydroxyethyl)-2-(hydroxymethyl)-1,6-naphthyridin-4(1H)-one] | 0.278 µM
12 | Cc1cc(=O)c2c(OCCOCCOCCOCCOCCO)ncc(Cl)c2n1-c1c(Cl)cccc1Cl [Example 14, 8-chloro-1-(2,6-dichlorophenyl)-5-((14-hydroxy-3,6,9,12-tetraoxatetradecyl)oxy)-2-methyl-1,6-naphthyridin-4(1H)-one] | 0.052 µM
13 | Cc1cc(=O)c2c(OCCOCCOCCOCCOCCOCCO)ncc(Cl)c2n1-c1c(Cl)cccc1Cl [Example 19, 8-chloro-1-(2,6-dichlorophenyl)-5-((17-hydroxy-3,6,9,12,15-pentaoxaheptadecyl)oxy)-2-methyl-1,6-naphthyridin-4(1H)-one] | 0.098 µM
14 | COCCOCCOCCOCCOCCOCCOc1ncc(Cl)c2c1c(=O)cc(C)n2-c1c(Cl)cccc1Cl [Example 15, 5-(2,5,8,11,14,17-hexaoxanonadecan-19-yloxy)-8-chloro-1-(2,6-dichlorophenyl)-2-methyl-1,6-naphthyridin-4(1H)-one] | 0.025 µM
15 | O=c1cc(CO)n(-c2c(Cl)cccc2Cl)c2c(Cl)cnc(OCC(O)CO)c12 (stereo not drawn) [Example 3, 8-chloro-1-(2,6-dichlorophenyl)-5-(2,3-dihydroxypropoxy)-2-(hydroxymethyl)-1,6-naphthyridin-4(1H)-one] | 0.131 µM
16 | O=c1cc(CO)n(-c2c(Cl)cccc2Cl)c2c(Cl)cnc(C(O)CO)c12 (stereo not drawn) [Example 82, 8-Chloro-1-(2,6-dichlorophenyl)-5-(1,2-dihydroxyethyl)-2-(hydroxymethyl)-1,6-naphthyridin-4(1H)-one] | 0.147 µM
17 | Cc1cc(=O)c2c(OCC(C)(C)O)ncc(Cl)c2n1-c1c(Cl)cccc1Cl [Example 42, 8-chloro-1-(2,6-dichlorophenyl)-5-(2-hydroxy-2-methylpropoxy)-2-methyl-1,6-naphthyridin-4(1H)-one] | 0.015 µM
18 | O=c1cc(CO)n(-c2c(Cl)cccc2Cl)c2c(Cl)cnc(NCCOCCOCCOCCO)c12 [Example 13, 8-chloro-1-(2,6-dichlorophenyl)-5-((2-(2-(2-(2-hydroxyethoxy)ethoxy)ethoxy)ethyl)amino)-2-(hydroxymethyl)-1,6-naphthyridin-4(1H)-one] | 0.071 µM
19 | Cc1cc(=O)c2c(Oc3nnnn3C)ncc(Cl)c2n1-c1c(Cl)cccc1Cl [Example 46, 8-chloro-1-(2,6-dichlorophenyl)-2-methyl-5-((1-methyl-1H-tetrazol-5-yl)oxy)-1,6-naphthyridin-4(1H)-one] | 0.128 µM
20 | Cc1cc(=O)c2c(N3C[C@@H](O)[C@@H](O)C3)ncc(Cl)c2n1-c1c(Cl)cccc1Cl [Example 33, 8-chloro-1-(2,6-dichlorophenyl)-5-((3R,4S)-3,4-dihydroxypyrrolidin-1-yl)-2-methyl-1,6-naphthyridin-4(1H)-one] | 0.1 µM
21 | Cc1cc(=O)c2c(N3CC(O)C3)cncc2n1-c1c(Cl)cc(C#N)cc1Cl [Example 29, 3,5-dichloro-4-(5-(3-hydroxyazetidin-1-yl)-2-methyl-4-oxo-1,7-naphthyridin-1(4H)-yl)benzonitrile] | 0.505 µM
22 | COCCOCCOc1ncc(Cl)c2c1c(=O)cc(CO)n2-c1c(Cl)cccc1Cl [Example 11, 8-chloro-1-(2,6-dichlorophenyl)-2-(hydroxymethyl)-5-(2-(2-methoxyethoxy)ethoxy)-1,6-naphthyridin-4(1H)-one] | 0.073 µM
23 | Cc1cc(=O)c2c(-c3cc[nH]n3)cncc2n1-c1c(Cl)cc(C#N)cc1Cl [Example 72, 3,5-dichloro-4-(2-methyl-4-oxo-5-(1H-pyrazol-3-yl)-1,7-naphthyridin-1(4H)-yl)benzonitrile] | 0.28 µM
24 | Cc1cc(=O)c2c(NCC(O)C(=O)NCCO)ncc(Cl)c2n1-c1c(Cl)cccc1Cl (stereo not drawn) [Example 17, 3-((8-chloro-1-(2,6-dichlorophenyl)-2-methyl-4-oxo-1,4-dihydro-1,6-naphthyridin-5-yl)amino)-2-hydroxy-N-(2-hydroxyethyl)propanamide] | 0.06 µM
25 | O=c1cc(CO)n(-c2c(Cl)cccc2Cl)c2c(Cl)cnc(CCC(O)CO)c12 (stereo not drawn) [Example 75, 8-Chloro-1-(2,6-dichlorophenyl)-5-(3,4-dihydroxybutyl)-2-(hydroxymethyl)-1,6-naphthyridin-4(1H)-one] | 0.214 µM
26 | Cc1cc(=O)c2c(N3CCN(CCO)CC3)ncc(Cl)c2n1-c1c(Cl)cc(C#N)cc1Cl [Example 25, 3,5-dichloro-4-(8-chloro-5-(4-(2-hydroxyethyl)piperazin-1-yl)-2-methyl-4-oxo-1,6-naphthyridin-1(4H)-yl)benzonitrile] | 0.146 µM
27 | COCc1cc(=O)c2c(OCC(CO)CO)ncc(Cl)c2n1-c1c(Cl)cccc1Cl [Example 53, 8-chloro-1-(2,6-dichlorophenyl)-5-(3-hydroxy-2-(hydroxymethyl)propoxy)-2-(methoxymethyl)-1,6-naphthyridin-4(1H)-one] | 0.028 µM
